Laboratory results reported in patent US20260028354A1, “TETRAHYDRONAPHTHALENE DERIVATIVES AS ESTROGEN RECEPTOR DEGRADERS” (REGENT OF THE UNIVERSITY OF MICHIGAN, priority 2022, published 2026).

Experiment: Western blot analysis for "B" compounds
Assay type: cell-based
Details: read-out: Traditional Western Degradation Potency (DC50)
Experimental: Western Blot Analysis. Western blot analysis was performed essentially as described previously. The cells treated with indicated compounds were lysed in Radioimmunoprecipitation Assay Protein Lysis and Extraction Buffer (25 mmol/I. Tris.HCl, pH 7.6, 150 mmol/L, NaCl, 1% Nonidet P-40, 1% sodium deoxycholate, and 0.1% sodium dodecyl sulfate) containing proteinase inhibitor cocktail (Roche Diagnostics, Mannheim, Germany). Equal amounts of total protein were electrophoresed through 10% SDS-polyacrylamide gels after determination of protein concentration by BCA assay (Fisher Scientific, Pittsburgh, PA), The separated protein bands were transferred onto PVDF membranes (GE Healthcare Life Sciences, Marlborough, MA) and blotted against different antibodies, as indicated. The blots were scanned, and the band intensities were quantified using GelQuant.NET software provided by biochemlabsolutions.com. The relative mean intensity of target proteins was expressed after normalization to the intensity of glyceraldehyde-3-phosphate dehydrogenase bands.

Structure (SMILES): Cn1cc(-c2ccc3c(c2)CC[C@H](c2ccccc2)[C@@H]3c2ccc(N3CCC4(CCN(C(=O)CN5Cc6cc7c(cc6C5)C(=O)N(C5CCC(=O)NC5=O)C7=O)CC4)CC3)cc2)cn1 (stereo partly drawn) [Compound B323, 2-(2,6-dioxopiperidin-3-yl)-6-(2-(9-(4-((1R,2S)-6-(1-methyl-1H-pyrazol-4-yl)-2-phenyl-1,2,3,4-tetrahydronaphthalen-1-yl)phenyl)-3,9-diazaspiro[5.5]undecan-3-yl)-2-oxoethyl)-6,7-dihydropyrrolo[3,4-f]isoindole-1,3(2H,5H)-dione]
- DC50: > 100 nM

Structure (SMILES): O=C1CCC(N2C(=O)c3cc4c(cc3C2=O)CC2(C4)CN(C(=O)C3CCN(c4ccc([C@@H]5c6ccc(O)cc6CC[C@@H]5c5ccccc5)cc4)CC3)C2)C(=O)N1 (stereo partly drawn) [Compound B297, 2′-(2,6-dioxopiperidin-3-yl)-1-(1-(4-((1R,2S)-6-hydroxy-2-phenyl-1,2,3,4-tetrahydronaphthalen-1-yl)phenyl)piperidine-4-carbonyl)-5′,7′-dihydro-1′H-spiro[azetidine-3,6′-cyclopenta[f]isoindole]-1′,3′(2'H)-dione]
- DC50: > 100 nM

Structure (SMILES): O=C1CCC(N2C(=O)c3cc4c(cc3C2=O)CN(CC(=O)N2CCC3(CC2)CCN(c2ncc([C@H]5c6ccc(O)cc6CC[C@H]5c5ccccc5)cn2)CC3)C4)C(=O)N1 (mixture of isomers) [Compound B82, 2-(2,6-dioxopiperidin-3-yl)-6-(2-(9-(5-((1R,2R)-6-hydroxy-2-phenyl-1,2,3,4-tetrahydronaphthalen-1-yl)pyrimidin-2-yl)-3,9-diazaspiro[5.5]undecan-3-yl)-2-oxoethyl)-6,7-dihydropyrrolo[3,4-f]isoindole-1,3(2H,5H)-dione]
- DC50: > 100 nM

Structure (SMILES): O=C1CCC(N2C(=O)c3cc4c(cc3C2=O)CN(CC2CN(CC3CCN(c5ccc([C@@H]6c7ccc(O)cc7CC[C@@H]6c6ccccc6)cc5)CC3)C2)C4)C(=O)N1 (stereo partly drawn) [Compound B274, 2-(2,6-dioxopiperidin-3-yl)-6-((1-((1-(4-((1R,2S)-6-hydroxy-2-phenyl-1,2,3,4-tetrahydronaphthalen-1-yl)phenyl)piperidin-4-yl)methyl)azetidin-3-yl)methyl)-6,7-dihydropyrrolo[3,4-f]isoindole-1,3(2H,5H)-dione]
- DC50: > 100 nM

Structure (SMILES): O=C1CCC(N2C(=O)c3cc4c(cc3C2=O)CN(CCN2CCC3(CC2)CN(c2ccc([C@@H]5c6ccc(O)cc6CC[C@@H]5c5ccccc5)cc2)C3)C4)C(=O)N1 (mixture of isomers) [Compound B196, 2-(2,6-dioxopiperidin-3-yl)-6-(2-(2-(4-((1R,2S)-6-hydroxy-2-phenyl-1,2,3,4-tetrahydronaphthalen-1-yl)phenyl)-2,7-diazaspiro[3.5]nonan-7-yl)ethyl)-6,7-dihydropyrrolo[3,4-f]isoindole-1,3(2H,5H)-dione]
- DC50: 10 to 100 nM

Structure (SMILES): O=C1CCC(N2C(=O)c3cc4c(cc3C2=O)CN([C@H]2CC[C@H](C(=O)N3CC(Oc5ccc([C@@H]6c7ccc(O)cc7CC[C@@H]6c6ccccc6)cc5)C3)CC2)C4)C(=O)N1 (stereo partly drawn) [Compound B122, 2-(2,6-dioxopiperidin-3-yl)-6-((1S,4r)-4-(3-(4-((1R,2S)-6-hydroxy-2-phenyl-1,2,3,4-tctrahydronaphthalcn-1-yl)phenoxy)azetidine-1-carbonyl)cyclohexyl)-6,7-dihydropyrrolo[3,4-f]isoindole-1,3(2H,5H)-dione]
- DC50: 10 to 100 nM

Structure (SMILES): O=C1CCC(N2C(=O)c3cc4c(cc3C2=O)CN(C(=O)CN2CCC3(CC2)CCN(c2c(F)cc([C@@H]5c6ccc(O)cc6CC[C@@H]5c5ccccc5)cc2F)C3)C4)C(=O)N1 (mixture of isomers) [Compound B34, 6-(2-(2-(2,6-difluoro-4-((1R,2S)-6-hydroxy-2-phenyl-1,2,3,4-tetrahydronaphthalen-1-yl)phenyl)-2,8-diazaspiro[4.5]decan-8-yl)acetyl)-2-(2,6-dioxopiperidin-3-yl)-6,7-dihydropyrrolo[3,4-f]isoindole-1,3(2H,5H)-dione]
- DC50: > 100 nM

Structure (SMILES): O=C1CCC(N2C(=O)c3cc4c(cc3C2=O)CN(Cc2ccc(N3CCN(c5ccc([C@@H]6c7ccc(O)cc7CC[C@@H]6c6ccccc6)cc5)CC3)nc2)C4)C(=O)N1 (stereo partly drawn) [Compound B282, 2-(2,6-dioxopiperidin-3-yl)-6-((6-(4-(4-((1R,2S)-6-hydroxy-2-phenyl-1,2,3,4-tetrahydronaphthalen-1-yl)phenyl)piperazin-1-yl)pyridin-3-yl)methyl)-6,7-dihydropyrrolo[3,4-f]isoindole-1,3(2H,5H)-dione]
- DC50: > 100 nM

Structure (SMILES): O=C1CCC(N2C(=O)c3cc4c(cc3C2=O)CN(C2CCC(NC3CCN(c5ccc([C@@H]6c7ccc(O)cc7CC[C@@H]6c6ccccc6)cc5)CC3)CC2)C4)C(=O)N1 (stereo partly drawn) [Compound B84, 2-(2,6-dioxopiperidin-3-yl)-6-(4-((1-(4-((1R,2S)-6-hydroxy-2-phenyl-1,2,3,4-tetrahydronaphthalen-1-yl)phenyl)piperidin-4-yl)amino)cyclohexyl)-6,7-dihydropyrrolo[3,4-f]isoindole-1,3(2H,5H)-dione]
- DC50: > 100 nM

Structure (SMILES): O=C1CCC(N2C(=O)c3cc4c(cc3C2=O)CN(CC(=O)N2CCC3(CCN(c5ccc([C@@H]6c7ccc(O)cc7CC[C@@H]6c6ccccc6)cc5)CC3)C2)C4)C(=O)N1 (mixture of isomers) [Compound B185, 2-(2,6-dioxopiperidin-3-yl)-6-(2-(8-(4-((1R,2S)-6-hydroxy-2-phenyl-1,2,3,4-tetrahydronaphthalen-1-yl)phenyl)-2,8-diazaspiro[4.5]decan-2-yl)-2-oxoethyl)-6,7-dihydropyrrolo[3,4-f]isoindole-1,3(2H,5H)-dione]
- DC50: 10 to 100 nM

Structure (SMILES): O=C1CCC(N2C(=O)c3cc4c(cc3C2=O)CN(CC(=O)N2CC3(CCN(c5ccc([C@@H]6c7ccc(O)cc7CC[C@@H]6c6ccc(F)cc6)cc5)CC3)C2)C4)C(=O)N1 (mixture of isomers) [Compound B11, 2-(2,6-dioxopiperidin-3-yl)-6-(2-(7-(4-((1R,2S)-2-(4-fluorophenyl)-6-hydroxy-1,2,3,4-tetrahydronaphthalen-1-yl)phenyl)-2,7-diazaspiro[3.5]nonan-2-yl)-2-oxoethyl)-6,7-dihydropyrrolo[3,4-f]isoindole-1,3(2H,5H)-dione]
- DC50: < 10 nM

Structure (SMILES): O=C1CCC(N2C(=O)c3cc4c(cc3C2=O)CN(CC(=O)N2CCC3(CC2)CCN(c2ccc([C@@H]5c6ccc(O)cc6CC[C@@H]5c5ccccc5)cc2)CC3)CC4)C(=O)N1 (mixture of isomers) [Compound B191, 2-(2,6-dioxopiperidin-3-yl)-6-(2-(9-(4-((1R,2S)-6-hydroxy-2-phenyl-1,2,3,4-tetrahydronaphthalen-1-yl)phenyl)-3,9-diazaspiro[5.5]undecan-3-yl)-2-oxoethyl)-5,6,7,8-tetrahydro-1H-pyrrolo[3,4-g]isoquinoline-1,3(2H)-dione]
- DC50: 10 to 100 nM

Structure (SMILES): O=C1CCC(N2C(=O)c3cc4c(cc3C2=O)CCN(CC(=O)N2CCC3(CC2)CCN(c2ccc([C@@H]5c6ccc(O)cc6CC[C@@H]5c5ccccc5)cc2)CC3)CC4)C(=O)N1 (stereo partly drawn) [Compound B39, 2-(2,6-dioxopiperidin-3-yl)-7-(2-(9-(4-((1R,2S)-6-hydroxy-2-phenyl-1,2,3,4-tetrahydronaphthalen-1-yl)phenyl)-3,9-diazaspiro[5.5]undecan-3-yl)-2-oxoethyl)-6,7,8,9-tetrahydroazepino[4,5-f]isoindole-1,3(2H,5H)-dione]
- DC50: > 100 nM
